Measurements published in patent publication US20220054451A1, “2,3-DIHYDROBENZO[b]THIOPHENE DERIVATIVES AS HYPOXIA INDUCIBLE FACTOR-2(ALPHA) INHIBITORS” (NiKang Therapeutics, Inc., priority 2018, published 2022).

Target: T1, HIF-2α (Homo sapiens, UniProt Q99814)
T1 construct: endogenous in cells; host or cells: 786-O cells
Assay: VEGF ELISA assay: VEGF expression in 786-O cells
Type: cell-based
Settings: VEGF concentration in culture medium by ELISA, compounds from 10 uM down to 1 nM, treated twice, medium collected 24 hours after second treatment
Description: The ability of the disclosed compounds to inhibit HIF-2α was measured by determining VEGF expression in 786-O cells. About 7500 786-O cells were seeded into each well of a 96-well, white, clear bottom plate (07-200-566, Fisher Scientific) with 200 ul growth medium. Four hours later, compounds were dispensed into wells by Tecan D300e digital dispenser with starting concentration of 10 uM and ½ log of dilution down to 1 nM as final concentration. Each concentration of treatment was performed in duplicate. About 20 hours later, medium was removed and fresh medium was added, followed by compounds treatment as described above. 24 hours later, cell culture medium was collected to determine VEGF concentration using an ELISA kit (R&D systems, cat #DVE00) following the manufacturer's instruction.
The IC50 is calculated by GraphPad Prism using the dose-response-inhibition (four parameter) equation. The plate with cells was then subjected to CellTiter-Glo luminescence cell viability assay (Promega) to determine the effect of these compounds on cell numbers after the above treatment.

T1 sequence (Q99814 whole entry): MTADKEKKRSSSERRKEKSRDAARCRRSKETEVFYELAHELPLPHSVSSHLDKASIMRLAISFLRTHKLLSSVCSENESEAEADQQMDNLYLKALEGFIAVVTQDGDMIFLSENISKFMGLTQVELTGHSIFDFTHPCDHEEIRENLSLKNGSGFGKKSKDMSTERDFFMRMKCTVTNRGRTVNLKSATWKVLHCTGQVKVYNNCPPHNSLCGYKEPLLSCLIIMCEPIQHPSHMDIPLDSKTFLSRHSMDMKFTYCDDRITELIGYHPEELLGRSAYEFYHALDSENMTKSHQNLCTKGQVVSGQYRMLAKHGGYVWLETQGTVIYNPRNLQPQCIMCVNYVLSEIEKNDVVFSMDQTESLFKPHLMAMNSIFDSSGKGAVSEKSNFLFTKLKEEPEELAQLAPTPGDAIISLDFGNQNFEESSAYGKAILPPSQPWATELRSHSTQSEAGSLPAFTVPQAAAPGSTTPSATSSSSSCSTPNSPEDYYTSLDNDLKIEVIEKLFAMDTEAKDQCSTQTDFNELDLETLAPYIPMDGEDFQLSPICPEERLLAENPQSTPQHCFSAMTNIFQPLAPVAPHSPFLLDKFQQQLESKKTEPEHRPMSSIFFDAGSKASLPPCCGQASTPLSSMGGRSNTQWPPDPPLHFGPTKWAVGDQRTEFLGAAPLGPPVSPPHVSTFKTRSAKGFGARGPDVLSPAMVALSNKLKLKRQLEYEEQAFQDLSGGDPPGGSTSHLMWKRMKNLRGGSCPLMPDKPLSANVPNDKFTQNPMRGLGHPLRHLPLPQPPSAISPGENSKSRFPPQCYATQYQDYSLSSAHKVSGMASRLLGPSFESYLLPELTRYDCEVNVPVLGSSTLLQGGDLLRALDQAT

Row | Molecule | EC50
1 | a mixture of 3-(((1S,3R)-7- (difluoromethyl)-2,2,3-trifluoro-1- oxido-2,3-dihydrobenzo- [b]thiophen-6-yl)oxy)-5- fluorobenzonitrile and 3-(((1R,3S)- 7-(difluoromethyl)-2,2,3- trifluoro-1-oxido-2,3-dihydrobenzo [b]thiophen-6-yl)oxy)-5- fluorobenzonitrile [Compound 3a] | 3500 nM
2 | a mixture of 3-fluoro-5-(((1S,3R)- 2,2,3-trifluoro-7-(methylsulfonyl)- 1-oxido-2,3- dihydrobenzo[b]thiophen-4-yl)oxy) benzonitrile and 3-fluoro-5- (((1R,3S)-2,2,3-trifluoro-7- (methylsulfonyl)-1-oxido-2,3- dihydrobenzo[b]thiophen-4-yl) oxy)benzonitrile [Compound 24a] | 8900 nM
3 | [O-][S@@+]1c2c(ccc(Oc3cc(F)cc(Cl)c3)c2C(F)F)[C@@H](F)C1(F)F (single isomer, unassigned) [Compound 12d] | 1600 nM
4 | a mixture of 3-fluoro-5-(((1R,3R)- 2,2,3-trifluoro-1-oxido-7- (trifluoromethyl)-2,3- dihydrobenzo[b]thiophen-4-yl)oxy) benzonitrile and 3-fluoro-5- (((1S,3S)-2,2,3-trifluoro-1- oxido-7-(trifluoromethyl)-2,3- dihydrobenzo[b]thiophen-4-yl) oxy)benzonitrile [Compound 27a] | 9400 nM
5 | [O-][S@+]1c2c(ccc(Oc3cc(F)cc(F)c3)c2C(F)F)[C@@H](F)C1(F)F (single isomer, unassigned) [Compound 9b] | 1200 nM
6 | [O-][S+]1c2c(ccc(Oc3cncc(Cl)c3)c2C(F)F)C(F)(F)C1(F)F (stereo not shown) [Compound 18, 6-((5-chloropyridin-3-yl)oxy)-7-(difluoromethyl)-2,2,3,3-tetrafluoro-2,3-dihydrobenzo-[b]thiophene 1-oxide] | 1800 nM
7 | [O-][S@@+]1c2c(ccc(Oc3cc(F)cc(F)c3)c2C(F)F)[C@H](F)C1(F)F (single isomer, unassigned) [Compound 9a] | 970 nM
8 | N#Cc1cc(F)cc(Oc2ccc3c(c2C(F)F)S(=O)(=O)C(F)(F)C3(F)F)c1 [Compound 20, 3-((7-(difluoromethyl)-2,2,3,3-tetrafluoro-1,1-dioxido-2,3-dihydrobenzo[b]thiophen-6-yl)oxy)-5-fluorobenzonitrile] | 27 nM
9 | a mixture of 3-(((1S,3S)-7- (difluoromethyl)-2,2,3-trifluoro-1- oxido-2,3-dihydrobenzo- [b]thiophen-6-yl)oxy)-5- fluorobenzonitrile and 3-(((1R,3R)- 7-(difluoromethyl)-2,2,3- trifluoro-1-oxido-2,3-dihydrobenzo [b]thiophen-6-yl)oxy)-5- fluorobenzonitrile [Compound 3b] | 160 nM
10 | N#Cc1cncc(Oc2ccc3c(c2C(F)F)[S+]([O-])C(F)(F)C3(F)F)c1 (stereo not shown) [Compound 16, 5-((7-(difluoromethyl)-2,2,3,3-tetrafluoro-1-oxido-2,3-dihydrobenzo[b]thiophen-6-yl)oxy)nicotinonitrile] | 2390 nM
11 | a mixture of 3-fluoro-5-(((1S,3R)- 2,2,3-trifluoro-1-oxido-7- (trifluoromethyl)-2,3- dihydrobenzo[b]thiophen-4-yl)oxy) benzonitrile and 3-fluoro-5- (((1R,3S)-2,2,3-trifluoro-1- oxido-7-(trifluoromethyl)-2,3- dihydrobenzo[b]thiophen-4-yl) oxy)benzonitrile [Compound 27b] | 670 nM
12 | a mixture of 3-fluoro-5-(((1R,3R)- 2,2,3-trifluoro-7-(methylsulfonyl)- 1-oxido-2,3- dihydrobenzo[b]thiophen-4-yl)oxy) benzonitrile and 3-fluoro-5- (((1S,3S)-2,2,3-trifluoro-7- (methylsulfonyl)-1-oxido-2,3- dihydrobenzo[b]thiophen-4-yl) oxy)benzonitrile [Compound 24b] | 18500 nM
13 | N#Cc1cc(F)cc(Oc2ccc3c(c2Br)[S+]([O-])C(F)(F)C3(F)F)c1 (stereo not shown) [Compound 30, 3-((7-bromo-2,2,3,3-tetrafluoro-1-oxido-2,3-dihydrobenzo[b]thiophen-6-yl)oxy)-5-fluorobenzonitrile] | 390 nM
14 | N#Cc1cc(F)cc(Oc2ccc3c(c2Cl)[S+]([O-])C(F)(F)C3(F)F)c1 (stereo not shown) [Compound 28, 3-((7-chloro-2,2,3,3-tetrafluoro-1-oxido-2,3-dihydrobenzo[b]thiophen-6-yl)oxy)-5-fluorobenzonitrile] | 240 nM
15 | N#Cc1cc(F)cc(Oc2ccc3c(c2C#N)[S+]([O-])C(F)(F)C3(F)F)c1 (stereo not shown) [Compound 31, 6-(3-cyano-5-fluorophenoxy)-2,2,3,3-tetrafluoro-2,3-dihydrobenzo [b]thiophene-7-carbonitrile 1-oxide] | 190 nM
16 | N#Cc1cc(F)cc(Oc2ccc3c(c2C(F)F)[S+]([O-])C(F)(F)C3=O)c1 (stereo not shown) [Compound 1, 3-((7-(difluoromethyl)-2,2-difluoro-1-oxido-3-oxo-2,3-dihydrobenzo[b]thiophen-6-yl)oxy)-5-fluorobenzonitrile] | 720 nM
17 | [O-][S@@+]1c2c(ccc(Oc3cc(F)cc(Cl)c3)c2C(F)F)[C@H](F)C1(F)F (single isomer, unassigned) [Compound 12a] | 860 nM
18 | [O-][S+]1c2c(ccc(Oc3cc(F)cc(F)c3)c2C(F)F)C(F)(F)C1(F)F (stereo not shown) [Compound 15, 7-(difluoromethyl)-6-(3,5-difluorophenoxy)-2,2,3,3-tetrafluoro-2,3-dihydrobenzo[b]-thiophene 1-oxide] | 130 nM
19 | N#Cc1cc(F)cc(Oc2ccc3c(c2Cl)S(=O)(=O)C(F)(F)C3(F)F)c1 [Compound 29, 3-((7-chloro-2,2,3,3-tetrafluoro-1,1-dioxido-2,3-dihydrobenzo [b]thiophen-6-yl)oxy)-5-fluorobenzonitrile] | 190 nM
20 | [O-][S+]1c2c(ccc(Oc3cncc(F)c3)c2C(F)F)C(F)(F)C1(F)F (stereo not shown) [Compound 17, 7-(difluoromethyl)-2,2,3,3-tetrafluoro-6-((5-fluoropyridin-3-yl)oxy)-2,3-dihydrobenzo-[b]thiophene 1-oxide] | 2130 nM
21 | [O-][S@+]1c2c(ccc(Oc3cc(F)cc(Cl)c3)c2C(F)F)[C@H](F)C1(F)F (single isomer, unassigned) [Compound 12c] | 45 nM
22 | [O-][S@+]1c2c(ccc(Oc3cc(F)cc(Cl)c3)c2C(F)F)[C@@H](F)C1(F)F (single isomer, unassigned) [Compound 12b] | 880 nM
23 | [O-][S@@+]1c2c(ccc(Oc3cc(F)cc(F)c3)c2C(F)F)[C@@H](F)C1(F)F (single isomer, unassigned) [Compound 9d] | 3270 nM
24 | [O-][S@+]1c2c(ccc(Oc3cc(F)cc(F)c3)c2C(F)F)[C@H](F)C1(F)F (single isomer, unassigned) [Compound 9c] | 74 nM
25 | [O-][S+]1c2c(ccc(OC3CC(F)(F)C3)c2C(F)F)C(F)(F)C1(F)F (stereo not shown) [Compound 19, 6-(3,3-difluorocyclobutoxy)-7-(difluoromethyl)-2,2,3,3-tetrafluoro-2,3-dihydrobenzo[b]-thiophene 1-oxide] | 2680 nM
26 | N#Cc1cc(F)cc(Oc2ccc3c(c2C(F)F)[S+]([O-])C(F)(F)C3(F)F)c1 (single isomer, unassigned) [Compound 13b] | 190 nM
27 | N#Cc1cc(Cl)cc(Oc2ccc3c(c2C(F)F)[S@@+]([O-])C(F)(F)[C@H]3F)c1 (single isomer, unassigned) [Compound 6d] | 280 nM
28 | N#Cc1cc(F)cc(Oc2ccc3c(c2C(F)F)[S+]([O-])C(F)(F)C3(F)F)c1 (single isomer, unassigned) [Compound 13a] | 37 nM
